Reference: US12116388B2, “Amylin receptor agonists” (Novo Nordisk A/S, priority 2022, dated 2024)
Starred links: 1 amine or outer side, 2 acyl side, 3 side chain; linkers in the order of their positions; H or OH if unused. Residues, ends and D or L forms follow the SMILES beside them. *: point of attachment. C18 diacid = O=C(O)CCCCCCCCCCCCCCCCC(=O)*; γGlu = O=C(O)[C@H](CCC(=O)[*:2])N[*:1]

Columns and labels:
[1] = target: T1, human calcitonin receptor (hCTR) (Homo sapiens, UniProt P30988); assay: Human calcitonin receptor (hCTR) in vitro potency assay, CRE-luciferase reporter in BHK cells; type: cell-based; settings: BHK hCTR/CRE-Luc cells, 3 hours incubation, assay buffer with 1% ovalbumin; read-out: hCalcR potency, EC50
T1 construct: host or cells: BHK (Baby Hamster Kidney), Hollex-1 cell line
T1 sequence (P30988 25-474): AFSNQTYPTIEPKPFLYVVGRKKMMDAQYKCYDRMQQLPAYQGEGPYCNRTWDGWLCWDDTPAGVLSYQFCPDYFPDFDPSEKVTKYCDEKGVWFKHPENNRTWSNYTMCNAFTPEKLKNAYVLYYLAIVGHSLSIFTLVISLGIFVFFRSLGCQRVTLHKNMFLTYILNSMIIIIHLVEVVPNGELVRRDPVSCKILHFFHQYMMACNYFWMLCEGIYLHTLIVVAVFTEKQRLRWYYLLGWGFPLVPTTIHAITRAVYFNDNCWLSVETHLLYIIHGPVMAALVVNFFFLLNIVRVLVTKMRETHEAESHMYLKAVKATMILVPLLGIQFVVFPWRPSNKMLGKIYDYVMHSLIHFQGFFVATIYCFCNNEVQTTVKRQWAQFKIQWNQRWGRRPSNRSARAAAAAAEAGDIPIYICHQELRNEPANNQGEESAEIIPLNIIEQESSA
In short: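 Luciferase signal from a CRE reporter served as the cAMP read-out after 3 h, 37 °C exposure to compound. Cells were stably transfected BHK expressing hCTR, and the buffer was phenol-red-free DMEM with 10 mM HEPES and 1% ovalbumin. Compounds were tested as 7-point, 7-fold dilutions, often from about 10 nM.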

[2] = target: T2, human amylin receptor (hAMYR3) (Homo sapiens, UniProt O60896+P30988); assay: Human amylin receptor (hAMYR3) in vitro potency assay, CRE-luciferase reporter in BHK cells; type: cell-based; settings: BHK hAMYR3/CRE-Luc cells, 3 hours incubation, assay buffer with 1% ovalbumin
T2 construct: host or cells: BHK (Baby Hamster Kidney), Hollex-1 cell line further transfected with RAMP3
T2 sequence (O60896 24-148, one chain of several): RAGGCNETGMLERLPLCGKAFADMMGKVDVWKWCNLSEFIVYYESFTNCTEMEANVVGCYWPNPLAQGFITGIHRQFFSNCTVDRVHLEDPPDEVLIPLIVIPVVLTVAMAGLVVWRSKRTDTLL
In short: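 Luminescence from a CRE-driven luciferase reporter reflects cAMP-mediated receptor activation. Peptides were serially diluted (7 concentrations, 7-fold steps, typically starting near 10 nM) in buffer with 1% ovalbumin and applied for 3 h at 37 °C to BHK cells co-expressing calcitonin receptor (a) and RAMP3.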

SMILES | EC50 [1] | EC50 [2]
CC[C@H](C)[C@H](NC(=O)[C@@H]1CCCN1C(=O)CNC(=O)[C@H](Cc1ccccc1)NC(=O)[C@H](Cc1c[nH]cn1)NC(=O)[C@H](Cc1c[nH]cn1)NC(=O)[C@H](CC(C)C)NC(=O)[C@H](Cc1ccccc1)NC(=O)[C@H](CCC(=O)O)NC(=O)[C@H](C)NC(=O)[C@H](CC(C)C)NC(=O)[C@H](CCCNC(=N)N)NC(=O)[C@H](CCC(N)=O)NC(=O)[C@@H](NC(=O)[C@H](CCC(N)=O)NC(=O)[C@H](C)NC(=O)[C@@H](NC(=O)[C@H](CO)NC(=O)[C@H](CC(C)C)NC(=O)[C@H](Cc1c[nH]cn1)NC(=O)[C@H](CO)NC(=O)[C@H](C)NC(=O)CC[C@H](NC(=O)CC[C@H](NC(=O)CCCCCCCCCCCCCCCCC(=O)O)C(=O)O)C(=O)O)[C@@H](C)O)[C@@H](C)O)C(=O)N[C@@H](CC(C)C)C(=O)N1CCC[C@H]1C(=O)N1CCC[C@H]1C(=O)N[C@H](C(=O)N[C@@H](CC(=O)O)C(=O)N[C@H](C(=O)NCC(=O)N[C@@H](CO)C(=O)N[C@@H](CCC(=O)O)C(=O)N[C@H](C(=O)N[C@@H](Cc1ccc(O)cc1)C(N)=O)[C@@H](C)O)C(C)C)[C@@H](C)O [Compound 32, N^1-[(4S)-4-carboxy-4-[[(4S)-4-carboxy-4-(17-carboxyheptadecanoylamino)butanoyl]amino]butanoyl]-[Ala1,Ser2,His3,Leu4,Ser5,Ala7,Gln8,Glu14,His17,Pro25,Pro28,Pro29,Asp31,Glu35],des-(19-22)-human amylin] ({C18 diacid-γGlu-γGlu}-ASHLSTAQTQRLAEFLHHFGPILPPTDVGSETY-NH2) | 15.7 pM | 5.71 pM
CC[C@H](C)[C@H](NC(=O)[C@H](C)NC(=O)CNC(=O)[C@H](Cc1ccccc1)NC(=O)[C@@H]1CCCN1C(=O)[C@H](CC(=O)O)NC(=O)[C@H](CO)NC(=O)[C@H](CO)NC(=O)[C@H](Cc1c[nH]cn1)NC(=O)[C@H](Cc1c[nH]cn1)NC(=O)[C@H](CC(C)C)NC(=O)[C@H](Cc1ccccc1)NC(=O)[C@H](CCC(=O)O)NC(=O)[C@H](C)NC(=O)[C@H](CC(C)C)NC(=O)[C@H](CCCNC(=N)N)NC(=O)[C@H](CCC(N)=O)NC(=O)[C@@H](NC(=O)[C@H](CCC(N)=O)NC(=O)[C@H](CC(C)C)NC(=O)[C@@H](NC(=O)[C@H](CO)NC(=O)[C@H](CC(C)C)NC(=O)[C@H](Cc1c[nH]cn1)NC(=O)[C@H](CO)NC(=O)[C@H](C)NC(=O)CC[C@H](NC(=O)CCCCCCCCCCCCCCCCC(=O)O)C(=O)O)[C@@H](C)O)[C@@H](C)O)C(=O)N1CCC[C@H]1C(=O)N[C@@H](CO)C(=O)N[C@@H](CO)C(=O)N[C@H](C(=O)N[C@@H](CC(=O)O)C(=O)N[C@H](C(=O)NCC(=O)N1CCC[C@H]1C(=O)N[C@@H](CC(=O)O)C(=O)N[C@H](C(=O)N1CCC[C@H]1C(N)=O)[C@@H](C)O)C(C)C)[C@@H](C)O [Compound 33, N^1-[(4S)-4-carboxy-4-(17-carboxyheptadecanoylamino)butanoyl]-[Ala1,Ser2,His3,Leu4,Ser5,Leu7,Gln8,Glu14,His17,Asp21,Pro22,Pro27,Asp31,Pro34,Asp35,Pro37]-human amylin] ({C18 diacid-γGlu}-ASHLSTLQTQRLAEFLHHSSDPFGAIPSSTDVGPDTP-NH2) | 1.74 pM | 1.69 pM
CC[C@H](C)[C@H](NC(=O)[C@@H]1CCCN1C(=O)CNC(=O)[C@H](Cc1ccccc1)NC(=O)[C@H](CC(N)=O)NC(=O)[C@H](CC(=O)O)NC(=O)[C@H](CO)NC(=O)[C@H](CO)NC(=O)[C@H](Cc1c[nH]cn1)NC(=O)[C@H](Cc1c[nH]cn1)NC(=O)[C@H](CC(C)C)NC(=O)[C@H](Cc1ccccc1)NC(=O)[C@H](CCC(=O)O)NC(=O)[C@H](C)NC(=O)[C@H](CC(C)C)NC(=O)[C@H](CCCNC(=N)N)NC(=O)[C@H](CCC(N)=O)NC(=O)[C@@H](NC(=O)[C@H](CCC(N)=O)NC(=O)[C@H](CC(C)C)NC(=O)[C@@H](NC(=O)[C@H](CO)NC(=O)[C@H](CC(C)C)NC(=O)[C@H](Cc1c[nH]cn1)NC(=O)[C@H](CO)NC(=O)[C@H](C)NC(=O)CC[C@H](NC(=O)CCCCCCCCCCCCCCCCC(=O)O)C(=O)O)[C@@H](C)O)[C@@H](C)O)C(=O)N[C@@H](CC(C)C)C(=O)N1CCC[C@H]1C(=O)N1CCC[C@H]1C(=O)N[C@H](C(=O)N[C@@H](CC(=O)O)C(=O)N[C@H](C(=O)NCC(=O)N[C@@H](CO)C(=O)N[C@@H](CC(N)=O)C(=O)N[C@H](C(=O)N1CCC[C@H]1C(N)=O)[C@@H](C)O)C(C)C)[C@@H](C)O [Compound 34, N^1-[(4S)-4-carboxy-4-(17-carboxyheptadecanoylamino)butanoyl]-[Ala1,Ser2,His3,Leu4,Ser5,Leu7,Gln8,Glu14,His17,Asp21,Pro25,Pro28,Pro29,Asp31,Pro37]-human amylin] ({C18 diacid-γGlu}-ASHLSTLQTQRLAEFLHHSSDNFGPILPPTDVGSNTP-NH2) | 2.06 pM | 1.91 pM
CC[C@H](C)[C@H](NC(=O)[C@@H]1CCCN1C(=O)CNC(=O)[C@H](Cc1ccccc1)NC(=O)[C@H](Cc1c[nH]cn1)NC(=O)[C@H](Cc1c[nH]cn1)NC(=O)[C@H](CC(C)C)NC(=O)[C@H](Cc1ccccc1)NC(=O)[C@H](CCC(=O)O)NC(=O)[C@H](C)NC(=O)[C@H](CC(C)C)NC(=O)[C@H](CCCNC(=N)N)NC(=O)[C@H](CCC(N)=O)NC(=O)[C@@H](NC(=O)[C@H](CCC(N)=O)NC(=O)[C@H](CC(C)C)NC(=O)[C@@H](NC(=O)[C@H](CO)NC(=O)[C@H](CC(C)C)NC(=O)[C@H](Cc1c[nH]cn1)NC(=O)[C@H](CO)NC(=O)[C@H](C)NC(=O)CC[C@H](NC(=O)CCCCCCCCCCCCCCCCC(=O)O)C(=O)O)[C@@H](C)O)[C@@H](C)O)C(=O)N[C@@H](CC(C)C)C(=O)N1CCC[C@H]1C(=O)N1CCC[C@H]1C(=O)N[C@H](C(=O)N[C@@H](CC(=O)O)C(=O)N[C@H](C(=O)NCC(=O)N[C@@H](CO)C(=O)N[C@@H](CCC(=O)O)C(=O)N[C@H](C(=O)N1CCC[C@H]1C(N)=O)[C@@H](C)O)C(C)C)[C@@H](C)O [Compound 35, N^1-[(4S)-4-carboxy-4-(17-carboxyheptadecanoylamino)butanoyl]-[Ala1,Ser2,His3,Leu4,Ser5,Leu7,Gln8,Glu14,His17,Pro25,Pro28,Pro29,Asp31,Glu35,Pro37],des-(19-22)-human amylin] ({C18 diacid-γGlu}-ASHLSTLQTQRLAEFLHHFGPILPPTDVGSETP-NH2) | 2.26 pM | 1.6 pM
CC[C@H](C)[C@H](NC(=O)[C@H](C)NC(=O)CNC(=O)[C@H](Cc1ccccc1)NC(=O)[C@@H]1CCCN1C(=O)[C@H](CC(=O)O)NC(=O)[C@H](CO)NC(=O)[C@H](CO)NC(=O)[C@H](Cc1c[nH]cn1)NC(=O)[C@H](Cc1c[nH]cn1)NC(=O)[C@H](CC(C)C)NC(=O)[C@H](Cc1ccccc1)NC(=O)[C@H](CCC(=O)O)NC(=O)[C@H](C)NC(=O)[C@H](CC(C)C)NC(=O)[C@H](CCCNC(=N)N)NC(=O)[C@H](CCC(N)=O)NC(=O)[C@@H](NC(=O)[C@H](CCC(N)=O)NC(=O)[C@H](C)NC(=O)[C@@H](NC(=O)[C@H](CO)NC(=O)[C@H](CC(C)C)NC(=O)[C@H](Cc1c[nH]cn1)NC(=O)[C@H](CO)NC(=O)[C@H](C)NC(=O)CC[C@H](NC(=O)CCCCCCCCCCCCCCCCC(=O)O)C(=O)O)[C@@H](C)O)[C@@H](C)O)C(=O)N1CCC[C@H]1C(=O)N[C@@H](CO)C(=O)N[C@@H](CO)C(=O)N[C@H](C(=O)N[C@@H](CC(=O)O)C(=O)N[C@H](C(=O)NCC(=O)N1CCC[C@H]1C(=O)N[C@@H](CC(=O)O)C(=O)N[C@H](C(=O)N[C@@H](Cc1ccc(O)cc1)C(N)=O)[C@@H](C)O)C(C)C)[C@@H](C)O [Compound 36, N^1-[(4S)-4-carboxy-4-(17-carboxyheptadecanoylamino)butanoyl]-[Ala1,Ser2,His3,Leu4,Ser5,Ala7,Gln8,Glu14,His17,Asp21,Pro22,Pro27,Asp31,Pro34,Asp35]-human amylin] ({C18 diacid-γGlu}-ASHLSTAQTQRLAEFLHHSSDPFGAIPSSTDVGPDTY-NH2) | 3.22 pM | 2.96 pM
